Assay results published in paper PMC10180065, “Mechanistic Studies of Arene–Ruthenium(II) Complexes with Carbothioamidopyrazoles as Alternative Cancer Drugs” (Molecules, 2023).

Legend:
Lipophilicity by RP-TLC = type: physicochemical; parameters: key: RM = log(1/Rf − 1), Rf = a/b; details: eluent AcCN: H2O at 30–70% v/v, 22 °C
Description: All the experimental solutions of standard substances (0.1 mg/mL) were prepared by dissolving ligands (1a–1d) or ruthenium complexes (2a/3a–2d/3d) in ethanol. Commercially-available octadecyl-modified silica aluminum sheets (20 × 20 cm) were cut into 5 × 10 cm plates. The plates were manually spotted with 1.0 μL of freshly prepared solutions using automatic pipets, 5 mm from each edge. The chromatograms for all compounds (1a/2a/3a–1d/2d/3d) were developed using a horizontal developing chamber and the solvent migration distance was about 4.5 cm. The plates were visually inspected under UV light at 254 nm. Each zone was clearly marked and its distance was manually measured. The RP-TLC analyses of lipophilicity were performed at ambient temperature (22 °C). In this experiment, all measurements were performed in triplicate and the obtained results were used in further calculations. The acetonitrile and water mixtures for ligands 1a–1d and arene–ruthenium(II) complexes 2a/3a–2d/3d were used as mobile phases, with […] content increasing in the range of 30–70% v/v, at 5% intervals. Values of the chromatographic retention coefficient Rf (as shown Formula (1)) and RM (as shown Formula (2)), based on received chromatograms, were calculated and converted as follows:(1) Rf=a/b (2) RM=log1/Rf−1

A549 = assay: MTT cytotoxicity, A549; type: cell-based, human; details: 48 h incubation, read-out: Cytotoxic effect, IC50
Description: (§1) Cytotoxicity was evaluated against fifteen adherent human cancer cell lines using the MTT test: colorectal adenocarcinoma cells Caco2 (ATCC® HTB-37™), colorectal adenocarcinoma cells HT29 (ATCC® HTB-38™), colon colorectal carcinoma HCT116 (ATCC® CCL-247™), colon adenocarcinoma COLO205 (ATCC® CCL-222™), colorectal adenocarcinoma SW620 (ATCC® CCL-227™), colorectal adenocarcinoma grade IV LoVo (ATCC® CCL-229™), hepatocellular carcinoma Hep 3b (ATCC® HB-8064™), endometrium adenocarcinoma HEC1A (ATCC® HTB-112™), Ishikawa (99040201; Sigma–Aldrich Sigma, St. Louis, MO, USA), cervical adenocarcinoma cells HeLa (ATCC® CCL-2™), lung epithelial carcinoma A549 (ATCC® CRM-CCL-185™), breast epithelial adenocarcinoma cell positive for estrogen and progesterone receptors MCF7 (ATCC® HTB-22™) and negative for expression of estrogen receptor HCC38 (ATCC® CRL-2314™), acute promyelocytic leukemia HL-60 (ATCC® CCL-240™), skin melanoma WM115 (ATCC® CRL-1676™), and 1 suspension cancer cell line: acute lymphoblastic leukemia NALM6 (purchased from the German Collection of Microorganisms and Cell Cultures). HT29, NALM6, HCC-38 and HL-60 cells were cultured in RPMI 1640 medium (Thermo Fisher Scientific, Waltham, MA, USA) supplemented with 10% fetal bovine serum and antibiotic (gentamicin 25 μg ml^−1) (Gibco, Grand Island, New York, NY, USA). For the remaining tumor cell lines, Dulbecco’s minimal essential medium (DMEM, Lonza, Visp, Switzerland) supplemented with 10% fetal bovine serum and antibiotic instead of RPMI 1640 was used. In addition, Human Microvascular Endothelial Cells (HMEC1), which were obtained from the American Type Culture Collection (Manassas, VA, USA), were used as a model of normal cells. HMEC-1 were cultured in MCDB131 medium (Corning Life Sciences, Corning, NY, USA), supplemented with 10% fetal bovine serum, 10 ng/mL Epidermal Growth Factor (Millipore, Burlington, MA, USA) and 10 mM glutamine (Corning Life Sciences). All cells were grown at 37 °C in humidified atmosphere of 5% CO2 in air. The exponential growth of cells was maintained by regular passaging at 90% confluence three times a week using 0.025% trypsin/EDTA (Gibco, Grand Island, New York, NY, USA).
(§2) The cytotoxicity was tested by a standard MTT [3-(4,5-dimethylthiazol-2-yl)-2,5-diphenyltetrazolium bromide] (Sigma, St. Louis, MO, USA) microplate cell viability assay. The anticancer activity of the investigated compounds was evaluated in vitro on the basis of their ability to inhibit the proliferation of various cancer cells. Exponentially growing cells were seeded a day before the experiment into a 96-well microplate (Nunc, Roskilde, Denmark) at a density up to 6–8 × 10^3 cells/mL (depending on the cell line) and exposed to the test compounds at a wide range of concentrations for 48 h. Subsequently, various concentrations of the studied compounds (10^−7–10^−5 M) freshly prepared in DMSO (final concentration of <0.1% DMSO) and diluted with complete culture medium were added. After 48 h incubation, the cells were immediately subjected to a cell viability assay. At this time point, the number of viable cells in each well was estimated by the MTT test. Briefly, 50 µL (5 mg/mL final concentration) of MTT was added to each microplate well. This procedure was then followed by a three- to four-hour incubation at 37 °C. After incubation, MTT solution was replaced with 100 µL DMSO/well, which solubilized the formazan crystals formed by the dehydrogenases of metabolically active cells. Purple formazan absorbance was measured spectrophotometrically at 570 nm.

LoVo = assay: MTT cytotoxicity, LoVo; type: cell-based, human; details: 48 h incubation, read-out: Cytotoxic effect, IC50
Description: as §1, §2

NALM6 = assay: MTT cytotoxicity, NALM6; type: cell-based, human; details: 48 h incubation, read-out: Cytotoxic effect, IC50
Description: as §1, §2

HL60 = assay: MTT cytotoxicity, HL60; type: cell-based, human; details: 48 h incubation, read-out: Cytotoxic effect, IC50
Description: as §1, §2

Hela = assay: MTT cytotoxicity, Hela; type: cell-based, human; details: 48 h incubation, read-out: Cytotoxic effect, IC50
Description: as §1, §2

Ishikawa = assay: MTT cytotoxicity, Ishikawa; type: cell-based, human; details: 48 h incubation, read-out: Cytotoxic effect, IC50
Description: as §1, §2

SW620 = assay: MTT cytotoxicity, SW620; type: cell-based, human; details: 48 h incubation, read-out: Cytotoxic effect, IC50
Description: as §1, §2

HEC1A = assay: MTT cytotoxicity, HEC1A; type: cell-based, human; details: 48 h incubation, read-out: Cytotoxic effect, IC50
Description: as §1, §2

HT29 = assay: MTT cytotoxicity, HT29; type: cell-based, human; details: 48 h incubation, read-out: Cytotoxic effect, IC50
Description: as §1, §2

Colo205 = assay: MTT cytotoxicity, Colo205; type: cell-based, human; details: 48 h incubation, read-out: Cytotoxic effect, IC50
Description: as §1, §2

HCC38 = assay: MTT cytotoxicity, HCC38; type: cell-based, human; details: 48 h incubation, read-out: Cytotoxic effect, IC50
Description: as §1, §2

Caco2 = assay: MTT cytotoxicity, Caco2; type: cell-based, human; details: 48 h incubation, read-out: Cytotoxic effect, IC50
Description: as §1, §2

Hep 3b = assay: MTT cytotoxicity, Hep 3b; type: cell-based, human; details: 48 h incubation, read-out: Cytotoxic effect, IC50
Description: as §1, §2

MCF7 = assay: MTT cytotoxicity, MCF7; type: cell-based, human; details: 48 h incubation, read-out: Cytotoxic effect, IC50
Description: as §1, §2

WM115 = assay: MTT cytotoxicity, WM115; type: cell-based, human; details: 48 h incubation, read-out: Cytotoxic effect, IC50
Description: as §1, §2

[1] = system: human microvascular endothelial cell line HMEC1; assay: MTT cytotoxicity, normal endothelial cells HMEC1; type: cell-based; details: for IC50: HMEC1 normal endothelial cells, 48 h incubation, read-out: Cytotoxic effect, IC50; for IC50 for HMEC-1 higher than for cancer cells (selectivity): HMEC-1 vs cancer cells
Description: as §1, §2

| Compound | Lipophilicity, RM (Lipophilicity by RP-TLC) | IC50 (A549) [µM] | IC50 (LoVo) [µM] | IC50 (NALM6) [µM] | IC50 (HL60) [µM] | IC50 (Hela) [µM] | IC50 (Ishikawa) [µM] | IC50 (SW620) [µM] | IC50 (HEC1A) [µM] | IC50 (HT29) [µM] | IC50 (Colo205) [µM] | IC50 (HCC38) [µM] | IC50 (Caco2) [µM] | IC50 (Hep 3b) [µM] | IC50 (MCF7) [µM] | IC50 (WM115) [µM] | IC50 [1] [µM] | IC50 for HMEC-1 higher than for cancer cells (selectivity) [1] |
| --- | --- | --- | --- | --- | --- | --- | --- | --- | --- | --- | --- | --- | --- | --- | --- | --- | --- | --- |
| Cc1cc(O)n(C(N)=S)n1.Cc1ccc(C(C)C)cc1.F[P-](F)(F)(F)(F)F.[Cl-].[Ru+2] [3d] | 2.39 | 152 ± 2.8 | 110 ± 6.9 | > 200 | > 200 | > 200 | > 200 | > 200 | 128 ± 2.1 | 185.2 ± 1.8 | > 200 | 188 ± 6.4 | 162 ± 6.1 | > 200 | > 200 | > 200 |  |  |
| Cc1cc(C)n(C(N)=S)n1.Cc1ccc(C(C)C)cc1.F[P-](F)(F)(F)(F)F.[Cl-].[Ru+2] [3a] | 2.55 | > 200 | 127 ± 3.7 | 46.1 ± 5.1 | 79.7 ± 7.2 | 98.7 ± 7.4 | > 200 | 63.9 ± 2.7 | 77.2 ± 4.4 | 123 ± 3.9 | 59.6 ± 3.4 | > 200 | 107 ± 8.4 | 55.3 ± 2.6 | > 200 | 64.1 ± 5.1 | > 200 | 3–5 times |
| Cc1ccc(C(C)C)cc1.Cc1ccc(C(C)C)cc1.[Cl][Ru][Cl].[Cl][Ru][Cl] [compound 4, dichloro(p-cymene)ruthenium(II), reference compound] |  | > 200 | 168 ± 7 | > 200 | > 200 | > 200 | 120 ± 7.2 | > 200 | 108 ± 3.4 | > 200 | > 200 | > 200 | > 200 | 167 ± 6.8 | > 200 | > 200 |  |  |
| Cc1cc(C)n(C(N)=S)n1.Cc1ccc(C(C)C)cc1.[Cl-].[Cl][Ru+] [2a] | 2.40 | 121 ± 3.6 | > 200 | 51.6 ± 5.7 | 88.9 ± 6.1 | > 200 | 90.7 ± 3.7 | 118 ± 6.1 | 62.3 ± 0.9 | 111 ± 4.9 | 110 ± 6.7 | 84.4 ± 1.1 | > 200 | > 200 | > 200 | 60.2 ± 6.3 | 156 ± 4.9 | 3–5 times |
